Where “and” joins values, the source holds several entries; their conditions need not be identical. Equal entries are not always repeated. Entries after “also recorded” stand apart in the source; their conditions may differ.
Columns and labels:
[1] = Open-label Phase 1b study in pediatric patients (Example 7), plasma concentrations of RVT-501 and M11; format: in vivo, human; details: for subjects with measurable concentrations in plasma at one or more time points: PK Set n=25, LLOQ 0.25 ng/mL
From the text: During the Treatment Phase, subjects, their parent(s), or caregiver applied RVT-501 0.5% ointment to affected areas twice daily for 28 days. Subjects returned to the clinic at Week 1, Week 4, and follow-up for study assessments. On Day 1 and Weeks 2 and 3, subjects were contacted by phone to confirm their status, including any adverse events (AEs) and changes in concomitant medications.
Primary Endpoints: Frequency and severity of AE (local and systemic), Laboratory values, Vital signs, Plasma concentrations of RVT-501 and M11 metabolite.
Analysis Populations: All subjects enrolled in the study who had at least one application of study drug were included in the Safety Set. This was the population for the safety and efficacy analyses. The PK Set included all subjects who underwent plasma PK sampling and had evaluable PK assay results.
Pharmacokinetic Analyses: RVT-501 and M11 were measured in plasma by a validated assay. The number and percent of subjects with measurable concentration at each time point and at any time during the study were summarized. RVT-501 and M11 concentrations were summarized descriptively at each collection time point.

[2] = Blood-to-plasma partition (B/P); format: in vitro ADME, human; details: for average B/P of two levels: 3 and 160 ng/mL; for blood plasma ratio at 3 ng/mL / blood plasma ratio at 160 ng/mL: human, whole blood and plasma prepared from it
Description: Blood-to-plasma partition and shelf-life of refrigerated blood: The blood-to-plasma partition (B/P) of E6005 and M11 was determined by assaying concentrations of E6005 and M11 in whole blood samples and plasma samples prepared from blood samples by centrifugation. […] The average B/P of two levels was 0.679 for E6005 and 0.584 for M11.

[3] = Phase 2 study in pediatric patients (Example 6), plasma concentrations of RVT-501 and M11 at Week 1; format: in vivo, human; details: for Plasma concentration, Mean (SD) / Plasma concentration, Median / Plasma concentration, Min / Plasma concentration, max / N with concentrations above LLQ (plasma): Week 1 pre-dose, subjects aged 2 to 11 years, twice daily application of RVT-501 0.5%; for N with concentrations above LLQ (plasma): N 16, LLQ 0.25 ng/mL
Description: Pharmacokinetic Endpoint: PK analysis for RVT-501 and M11 metabolite at the Week 1 visit in subjects 2 to 11 years old.
Pharmacokinetic Analyses: RVT-501 and M11 were measured in plasma by a validated assay. Plasma concentrations were summarized as continuous variables.
Pharmacokinetic Concentration Results: A single blood sample was collected pre-dose in subjects aged 2 to 11 years old at Week 1 to assess the concentration of RVT-501 and the M11 metabolite in plasma.

[4] = Phase 2 study RVT-501-2001, plasma concentrations of RVT-501 and M11; format: in vivo, human
From the text: During the treatment period, subjects applied RVT-501 ointment or vehicle to affected areas twice daily (BID) for 28 days. Subjects returned to the clinic at Day 4 for evaluation, and again at Weeks 1, 2, 3, and 4 for safety and efficacy assessments. Pharmacokinetic samples were collected at Weeks 1 and 4. On clinic visit days (except on the Day 4 visit), subjects applied study drug on-site while under the supervision of site personnel, after efficacy assessments had been completed.
Statistical Methods: Efficacy Analyses: A sample size and power sensitivity analysis was conducted for the efficacy endpoints. Assuming an effect size (defined as difference of mean change from baseline EASI score between treatment groups relative to pooled standard deviation) of 0.7, a sample size of 50 subjects in an active arm and 50 subjects in the combined placebo will provide 93% power at an alpha level of 0.05 (2-sided), based on a 2-sided t-test. The sample size will also allow a difference of 33% between placebo and active treatment in a responder endpoint to be detected with 90% power and a 0.05 significance level assuming the proportion of responders in the placebo group is <=20%. Efficacy endpoints will be summarized and listed by treatment for each age group and both age groups combined; The between-treatment comparisons (active vs placebo and between active dose groups) for continuous efficacy variables will be performed using an analysis of covariance (ANCOVA) model. The between treatment comparisons for the proportion of responders will be compared using a CMH or Chi-square test. Safety Analyses: Adverse events will be mapped to a Medical Dictionary for Regulatory Activities (MedDRA). Treatment emergent adverse events will be summarized by treatment, preferred term and system organ classification. Descriptive summaries of vital signs, ECG parameters, and clinical laboratory results will be presented by study visit and treatment group. Pharmacokinetic Analyses: RVT-501 and M11 plasma concentrations will be listed by subject, treatment, and time; and will be summarized by treatment and time. The number and percent of subjects with a measurable concentration of either analyte at each time point and any time during the study will be provided.
Analysis Populations: Four analysis populations were used for this study. The Safety population, consisting of all subjects enrolled into the study who received study drug, was used for the safety analyses. The intent-to-treat (ITT) population, defined as all subjects randomized to treatment, was the primary population used for the efficacy analyses. The per protocol (PP) population included subjects who applied at least 50% of the doses. The PP population was used for confirmatory analysis of the efficacy variables. The PK population included all subjects who underwent plasma PK sampling and had at least one evaluable PK sample (a concentration reported as below the lower limit of quantitation (LLQ) of the assay was considered an evaluable PK sample).
Pharmacokinetics: Blood samples for PK analysis of RVT-501 and the M11 metabolite will be collected at the time points indicated in Table 1. The actual date and time of each blood sample collection will be recorded as well as the date and time of the last dose of study mediation. The timing of PK samples may be altered and/or PK samples may be obtained at additional time points to ensure thorough PK monitoring.
Pharmacokinetics summary: PK samples were collected pre-dose at Weeks 1 and 4, and 2-4 hrs post-dose at Week 4. […] Three patients had detectable M11 exposure with the highest value at 1.60 ng/mL.

[5] = Week 1 Hour 3, RVT-501 0.5% (N = 25)
[6] = Week 1 Hour 7, RVT-501 0.5% (N = 25)
[7] = Week 1 Pre-Dose, RVT-501 0.5% (N = 25)
[8] = Week 4 Pre-Dose, RVT-501 0.5%, N 23
[9] = Week 1, RVT-501 0.5% twice daily, person two

## CNc1nc(-c2cccc(NC(=O)c3ccc(C(=O)O)cc3)c2)c2cc(OC)c(OC)cc2n1 [Formulation M11, 4-((3-(6,7-dimethoxy-2-(methylamino)quinazolin-4-yl)phenyl)carbamoyl)benzoic acid]
[1]
  subjects with measurable concentrations in plasma at one or more time points: 40%
[1]; Week 1, 7 hours post-dose
  highest plasma concentration of M11 (Subject 03007): 23.4 ng/mL and 23.40 ng/mL
  mean plasma concentration of the M11 metabolite: 1.24 ng/mL
[1]; [5]
  Number of subjects with measurable concentrations, (%): (28.0) %
  Plasma concentration, Max: 8.58 ng/mL
  Plasma concentration, Mean: 0.61 ng/mL
  Plasma concentration, Median: 0.0 ng/mL
  Plasma concentration, Min: 0 ng/mL
[1]; [6]
  Number of subjects with measurable concentrations, (%): (28.0) %
  Plasma concentration, Max: 23.40 ng/mL
  Plasma concentration, Mean: 1.24 ng/mL
  Plasma concentration, Median: 0.0 ng/mL
  Plasma concentration, Min: 0 ng/mL
[1]; [7]
  Number of subjects with measurable concentrations, (%): (24.0) %
  Plasma concentration, Max: 7.64 ng/mL
  Plasma concentration, Mean: 0.57 ng/mL
  Plasma concentration, Median: 0.0 ng/mL
  Plasma concentration, Min: 0 ng/mL
[1]; [8]
  Number of subjects with measurable concentrations, (%): (17.4) %
  Plasma concentration, Max: 1.07 ng/mL
  Plasma concentration, Mean: 0.12 ng/mL
  Plasma concentration, Median: 0.0 ng/mL
  Plasma concentration, Min: 0 ng/mL
[1]; all time points except 7 hours post-dose at Week 1
  mean plasma concentration of the M11 metabolite: below 1 ng/ml
[2]
  average B/P of two levels: 0.584
  blood plasma ratio at 3 ng/mL: 0.594
  blood plasma ratio at 160 ng/mL: 0.574
[3]; Week 1, RVT-501 0.5% twice daily
  highest plasma M11 concentration (Subject 05002): 16.90 ng/mL
[3]; Week 1, ages 2-11 years
  measurable plasma concentrations of the M11 metabolite (eight subjects out of 16): near the lower limit of quantitation
[3]
  Plasma concentration, Mean (SD): 1.50 (4.194) ng/mL
  Plasma concentration, Median: 0.19 ng/mL
  Plasma concentration, Min: 0 ng/mL
  Plasma concentration, max: 16.90 ng/mL
  N with concentrations above LLQ (plasma): 8
[4]; RVT-501 0.2% group, Week 1 pre-dose
  plasma M11 concentration, Subject 18014 (adolescent): 1.27 ng/mL
[4]; RVT-501 0.5% group, Week 1 pre-dose
  plasma M11 concentration, Subject 03005 (adult): 1.60 ng/mL
[4]; RVT-501 0.5% group, Week 4 pre-dose
  plasma M11 concentration, Subject 09003 (adult): 1.09 ng/mL
[4]; all groups, Weeks 1 and 4
  highest plasma concentration of M11 metabolite: 1.60 ng/mL

## CNc1nc(-c2cccc(NC(=O)c3ccc(C(=O)OC)cc3)c2)c2cc(OC)c(OC)cc2n1 [RVT-501, methyl N-[3-(6,7-dimethoxy-2-methylaminoquinazolin-4-yl)phenyl]terephthalamic acid]
[1]
  subjects with measurable concentrations in plasma at one or more time points: 40%
[1]; Week 1, 3 hours post-dose
  mean plasma concentration of RVT-501: 102.92 ng/mL
  plasma level of RVT-501, Subject 03002: 710.0 ng/mL
[1]; Week 1, 7 hours post-dose
  mean plasma concentration of RVT-501: 62.16 ng/mL
  plasma level of RVT-501, Subject 03001: 80.3 ng/mL
[1]; [5]
  Number of subjects with measurable concentrations, (%): (24.0) %
  Plasma concentration, Max: 1860.00 ng/mL
  Plasma concentration, Mean: 102.92 ng/mL
  Plasma concentration, Median: 0.0 ng/mL
  Plasma concentration, Min: 0 ng/mL
[1]; [6]
  Number of subjects with measurable concentrations, (%): (32.0) %
  Plasma concentration, Max: 1470.00 ng/mL
  Plasma concentration, Mean: 62.16 ng/mL
  Plasma concentration, Median: 0.0 ng/mL
  Plasma concentration, Min: 0 ng/mL
[1]; [7]
  Number of subjects with measurable concentrations, (%): (24.0) %
  Plasma concentration, Max: 147.00 ng/mL
  Plasma concentration, Mean: 6.00 ng/mL
  Plasma concentration, Median: 0.0 ng/mL
  Plasma concentration, Min: 0 ng/mL
[1]; Week 1 pre-dose
  mean plasma concentration of RVT-501: 6.00 ng/mL
  plasma level of RVT-501, Subject 03007: 147.0 ng/mL
[1]; Week 1 visit
  subjects with concentrations of RVT-501 ≥80 ng/ml: 16%
[1]; [8]
  Number of subjects with measurable concentrations, (%): (13.0) %
  Plasma concentration, Max: 0.45 ng/mL
  Plasma concentration, Mean: 0.05 ng/mL
  Plasma concentration, Median: 0.0 ng/mL
  Plasma concentration, Min: 0 ng/mL
[1]; human, in vivo
  highest plasma concentration of RVT-501: 1 860 ng/mL
[2]
  average B/P of two levels: 0.679
  blood plasma ratio at 3 ng/mL: 0.69
  blood plasma ratio at 160 ng/mL: 0.669
[3]; Week 1, RVT-501 0.5% twice daily, person one
  plasma RVT-501 concentration, Subject 03001: 1.07 ng/mL
[3]; [9]
  plasma RVT-501 concentration, Subject 05002: 306 ng/mL and 306.00 ng/mL
  plasma RVT-501 concentration, Subject 21001: above the upper limit of quantification; also recorded: above upper limit of quantitation
[3]
  Plasma concentration, Mean (SD): 31.69 (88.531) ng/mL
  Plasma concentration, Median: 0 ng/mL
  Plasma concentration, Min: 0 ng/mL
  Plasma concentration, max: 306.00 ng/mL
  N with concentrations above LLQ (plasma): 3
[4]; RVT-501 0.2% group, Week 4
  highest plasma concentration of RVT-501: 1.23 ng/mL
[4]; RVT-501 0.2% group, Week 4, 2 hours post-dose
  plasma RVT-501 concentration, Subject 18014 (adolescent): 1.20 ng/mL
[4]; RVT-501 0.2% group, Week 4 pre-dose
  plasma RVT-501 concentration, Subject 18014 (adolescent): 1.23 ng/mL
[4]; Week 1 pre-dose, all treatment groups, LLQ
  plasma concentration of RVT-501: < 1.00 ng/mL
[4]; topical 0.2% and 0.5% BID
  systemic absorption: minimal to no systemic absorption
